This note sets out measurements from PubChem BioAssay (NCI).

Test systems include PC-3 prostate; HCT-116 colon; RPMI-8226 leukemia; UACC-62 melanoma; HCT-15 colon; K-562 leukemia; CCRF-CEM leukemia; OVCAR-3 ovarian; DU-145 prostate; UACC-257 melanoma; MALME-3M melanoma; SK-MEL-28 melanoma; CAKI-1 renal; KM12 colon; OVCAR-4 ovarian; SF-539 CNS; RXF 393 renal; OVCAR-8 ovarian; 786-0 renal.
What all share (assay): NCI tumour cell line growth inhibition, 48 h

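Compound exposure: 48 hours, 5 concentrations, 96-well plates. Definition used: TGI = concentration required for complete inhibition of growth.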 *1 amine or outer side, *2 acyl side, *3 side chain or, on linkers, in order; H or OH if unused. Where a SMILES comes first, the peptide text is derived from it. Bridges are numbered along the chain shown (N, C = ends). Roman numbers before positions name the chains, in order. [ ]: non-standard residue; d: D form. Actinocin(9to1) = Cc1c2oc3c(C)ccc(C(=O)[*:1])c3nc-2c(C(=O)[*:2])c(N)c1=O; X48 = O=C1CC(C(=O)[*:2])N([*:1])C1; NMeV = CN[CH](C(=O)O)C(C)C; Sar = CNCC(=O)O

In the case of `CCCCOC(=O)C1CN2C=CC=NC2=NC1(C(F)(F)F)C(F)(F)F` (stereo not given), the TGI in the experiment with PC-3 prostate, in the experiment on HCT-116 colon, with RPMI-8226 leukemia, with UACC-62 melanoma, with HCT-15 colon and in the experiment with K-562 leukemia was over 100 µM each time. Also, the TGI in the experiment with CCRF-CEM leukemia, with OVCAR-3 ovarian, with DU-145 prostate, with UACC-257 melanoma, in the experiment with MALME-3M melanoma and in the experiment with SK-MEL-28 melanoma was over 100 µM each time. Moreover, the TGI with CAKI-1 renal, in the experiment with KM12 colon, with OVCAR-4 ovarian, with SF-539 CNS, in the experiment with RXF 393 renal and in the experiment on OVCAR-8 ovarian was over 100 µM throughout. The compound also returned a TGI in the experiment with 786-0 renal of over 100 µM.
For `Cc1ccc2c(c1)C(=O)C(Cc1ccccc1C(=O)O)C2` (stereo not given), the TGI with PC-3 prostate, with HCT-116 colon, in the experiment on RPMI-8226 leukemia, in the experiment with UACC-62 melanoma, in the experiment on HCT-15 colon and in the experiment on K-562 leukemia was over 100 µM throughout. The TGI in the experiment on CCRF-CEM leukemia, in the experiment with OVCAR-3 ovarian, with DU-145 prostate, in the experiment on UACC-257 melanoma, in the experiment on MALME-3M melanoma and in the experiment on SK-MEL-28 melanoma was over 100 µM throughout. Moreover, the TGI in the experiment with CAKI-1 renal, in the experiment on KM12 colon, in the experiment with OVCAR-4 ovarian, in the experiment with SF-539 CNS, in the experiment on RXF 393 renal and in the experiment on OVCAR-8 ovarian was over 100 µM in each case. This compound also came in with a TGI in the experiment with 786-0 renal of over 100 µM.
With `O=c1c2cc([N+](=O)[O-])ccc2n(Cc2ccccc2)n1Cc1ccccc1`, the TGI with PC-3 prostate was 31 µM; in the experiment on HCT-116 colon it was over 31.6 µM; with RPMI-8226 leukemia, 18.8 µM; in the experiment on UACC-62 melanoma it was 21.4 µM; with HCT-15 colon it was over 31.6 µM; in the experiment on K-562 leukemia, over 31.6 µM. The TGI in the experiment on CCRF-CEM leukemia is over 31.6 µM; in the experiment with OVCAR-3 ovarian, over 31.6 µM; with DU-145 prostate, over 31.6 µM; with UACC-257 melanoma it was 19.8 µM; with MALME-3M melanoma it was over 31.6 µM; in the experiment with SK-MEL-28 melanoma, over 31.6 µM. Further, the TGI with CAKI-1 renal is over 31.6 µM; in the experiment with KM12 colon, 22.2 µM; in the experiment on OVCAR-4 ovarian it was over 31.6 µM; in the experiment with SF-539 CNS it was over 31.6 µM; in the experiment on RXF 393 renal, over 31.6 µM; in the experiment with OVCAR-8 ovarian, 22.4 µM. The TGI in the experiment on 786-0 renal was over 31.6 µM.
Turning to `CCCCCCCC/C=C\CCCCCCC(F)C(=O)O` (stereo not given), the TGI in the experiment with PC-3 prostate, in the experiment with HCT-116 colon, in the experiment with RPMI-8226 leukemia, in the experiment on HCT-15 colon, with K-562 leukemia and in the experiment with CCRF-CEM leukemia was over 12.5 µM in each case. For the same compound, the TGI in the experiment on OVCAR-3 ovarian, in the experiment on DU-145 prostate, with UACC-257 melanoma, in the experiment on MALME-3M melanoma, in the experiment on SK-MEL-28 melanoma and in the experiment on CAKI-1 renal was over 12.5 µM in each case. Further, the TGI in the experiment with KM12 colon, in the experiment on OVCAR-4 ovarian, with SF-539 CNS, in the experiment with RXF 393 renal, in the experiment with OVCAR-8 ovarian and in the experiment on 786-0 renal was over 12.5 µM each time.
With `O=S(=O)(N=S(c1ccc(Cl)cc1)c1ccc(Cl)cc1)c1ccccc1`, the TGI with PC-3 prostate, with HCT-116 colon, with RPMI-8226 leukemia, with UACC-62 melanoma, with HCT-15 colon and with K-562 leukemia was over 100 µM throughout. Also, the TGI in the experiment with CCRF-CEM leukemia, with DU-145 prostate, in the experiment with UACC-257 melanoma, in the experiment with MALME-3M melanoma, in the experiment with SK-MEL-28 melanoma and in the experiment with CAKI-1 renal was over 100 µM throughout. The TGI in the experiment with KM12 colon, in the experiment with OVCAR-4 ovarian, in the experiment with SF-539 CNS, in the experiment on RXF 393 renal, in the experiment on OVCAR-8 ovarian and with 786-0 renal was over 100 µM throughout.
Consider `COC(=O)c1ccc(N=NN(C)COc2ccc(C#N)cc2)cc1`, for which the TGI in the experiment with PC-3 prostate, in the experiment with HCT-116 colon, with RPMI-8226 leukemia, with HCT-15 colon, with K-562 leukemia and with CCRF-CEM leukemia was over 100 µM each time. Also, the TGI with OVCAR-3 ovarian, in the experiment with DU-145 prostate, in the experiment on UACC-257 melanoma, in the experiment on MALME-3M melanoma, in the experiment with SK-MEL-28 melanoma and with CAKI-1 renal was over 100 µM in each case. In addition, the TGI in the experiment on KM12 colon, with OVCAR-4 ovarian, in the experiment with SF-539 CNS, in the experiment on RXF 393 renal, in the experiment with OVCAR-8 ovarian and with 786-0 renal was over 100 µM in each case.
For `Oc1c2cc(Br)cc1CCc1cc(Br)cc(c1O)CC2`, the TGI is 55.8 µM with PC-3 prostate; 30.1 µM in the experiment with HCT-116 colon; over 100 µM with RPMI-8226 leukemia; 46 µM in the experiment with UACC-62 melanoma; 80.7 µM with HCT-15 colon; over 100 µM in the experiment on K-562 leukemia. Also, the TGI in the experiment with CCRF-CEM leukemia is 97.5 µM; in the experiment with OVCAR-3 ovarian, 48.8 µM; in the experiment on DU-145 prostate, over 100 µM; in the experiment with UACC-257 melanoma, 55.6 µM; in the experiment with MALME-3M melanoma, over 100 µM; in the experiment with SK-MEL-28 melanoma, over 100 µM. The TGI with CAKI-1 renal was over 100 µM; in the experiment with KM12 colon, 37.5 µM; in the experiment with SF-539 CNS it was 58.6 µM; in the experiment with RXF 393 renal, 70.4 µM; in the experiment on OVCAR-8 ovarian, over 100 µM; in the experiment with 786-0 renal, over 100 µM.
With `Cc1c2oc3c(C)ccc(C(=O)NC4C(=O)NC(C(C)C)C(=O)N5CC(=O)CC5C(=O)N(C)CC(=O)N(C)C(C(C)C)C(=O)OC4C)c3nc-2c(C(=O)NC2C(=O)NC(C(C)C)C(=O)N3CC(=O)CC3C(=O)N(C)CC(=O)N(C)C(C(C)C)C(=O)OC2C)c(N)c1=O` (stereo not given) (I: TV[X48][Sar][NMeV] / II: TV[X48][Sar][NMeV]; ester I:1-I:C, II:1-II:C; linker I:N-II:N via Actinocin(9to1); configuration not given here), the TGI in the experiment with PC-3 prostate, in the experiment on HCT-116 colon, with RPMI-8226 leukemia, with HCT-15 colon, with K-562 leukemia and with CCRF-CEM leukemia was over 1 µM in each case. In addition, the TGI in the experiment on OVCAR-3 ovarian, in the experiment on DU-145 prostate, in the experiment on UACC-257 melanoma, in the experiment on MALME-3M melanoma, in the experiment on SK-MEL-28 melanoma and in the experiment on CAKI-1 renal was over 1 µM in each case. The TGI in the experiment on OVCAR-4 ovarian, with SF-539 CNS, in the experiment with RXF 393 renal, with OVCAR-8 ovarian and in the experiment on 786-0 renal was over 1 µM in each case.
In the case of `O=C1C2=Cc3ccccc3OC2(O)Oc2cc(O)ccc21` (stereo not given), the TGI with PC-3 prostate, in the experiment with HCT-116 colon, in the experiment on RPMI-8226 leukemia, in the experiment on UACC-62 melanoma, in the experiment on HCT-15 colon and with K-562 leukemia was over 100 µM in each case. For the same compound, the TGI in the experiment on CCRF-CEM leukemia is 88.7 µM; in the experiment with OVCAR-3 ovarian, over 100 µM; in the experiment on DU-145 prostate it was over 100 µM; in the experiment with UACC-257 melanoma it was over 100 µM; in the experiment with MALME-3M melanoma it was over 100 µM; with SK-MEL-28 melanoma it was over 100 µM. Also, the TGI in the experiment on CAKI-1 renal, in the experiment on KM12 colon, in the experiment on SF-539 CNS, in the experiment on RXF 393 renal, in the experiment on OVCAR-8 ovarian and with 786-0 renal was over 100 µM in each case.
In the case of `C[C@]12CCC(=O)C=C1CC[C@@H]1[C@@H]2CC[C@]2(C)C(=O)[C@H](n3ccnc3)C[C@@H]12`, the TGI with PC-3 prostate, with HCT-116 colon, in the experiment on RPMI-8226 leukemia, in the experiment on UACC-62 melanoma, in the experiment with HCT-15 colon and in the experiment with K-562 leukemia was over 100 µM each time. The TGI in the experiment on CCRF-CEM leukemia, with DU-145 prostate, in the experiment with UACC-257 melanoma, in the experiment with MALME-3M melanoma, in the experiment with SK-MEL-28 melanoma and in the experiment with CAKI-1 renal was over 100 µM throughout. Further, the TGI in the experiment with KM12 colon, with OVCAR-4 ovarian, in the experiment with SF-539 CNS, with RXF 393 renal, in the experiment with OVCAR-8 ovarian and in the experiment on 786-0 renal was over 100 µM each time.
For the compound `COC(=O)C1=NN2c3ccccc3C(=O)OCCC2(C)C1` (stereo not given), the TGI in the experiment with PC-3 prostate, in the experiment with HCT-116 colon, in the experiment with RPMI-8226 leukemia, with UACC-62 melanoma, in the experiment on HCT-15 colon and in the experiment with K-562 leukemia was over 100 µM each time. Moreover, the TGI with CCRF-CEM leukemia, in the experiment on OVCAR-3 ovarian, in the experiment on DU-145 prostate, in the experiment with MALME-3M melanoma, with SK-MEL-28 melanoma and in the experiment on CAKI-1 renal was over 100 µM each time. Also, the TGI in the experiment with KM12 colon, in the experiment on OVCAR-4 ovarian, in the experiment on SF-539 CNS, with RXF 393 renal, in the experiment on OVCAR-8 ovarian and with 786-0 renal was over 100 µM throughout.
